Data from patent US4698327A, “Novel glycopeptide derivatives” (priority 1986, dated 1987).
Converted amounts (≈) assume the structure as drawn.

Key:
[1] = system: Streptococcus pyogenes C203; experiment: MIC, standard agar-dilution assay; assay type: cell-based
[2] = system: Staphylococcus aureus S13E; assay type: cell-based; details: agar dilution
[3] = system: Escherichia coli TEM; experiment: MIC, standard agar-dilution assay; assay type: cell-based
[4] = system: Streptococcus sp. group D 2041; experiment: MIC, standard agar-dilution assay; assay type: cell-based
[5] = system: Klebsiella pneumoniae X68; experiment: MIC, standard agar-dilution assay; assay type: cell-based
[6] = system: Streptococcus faecium ATCC 9790; experiment: MIC, standard agar-dilution assay; assay type: cell-based
[7] = system: Haemophilus influenzae 76; experiment: MIC, standard agar-dilution assay; assay type: cell-based
[8] = system: Streptococcus pyogenes; details: Streptococcus pyogenes infection in mice; two doses, administered subcutaneously
[9] = system: Staphylococcus aureus V41; experiment: MIC, standard agar-dilution assay; assay type: cell-based
[10] = system: Escherichia coli N10; experiment: MIC, standard agar-dilution assay; assay type: cell-based
[11] = system: Klebsiella pneumoniae KAE; experiment: MIC, standard agar-dilution assay; assay type: cell-based
[12] = system: Staphylococcus epidermidis EPI1; assay type: cell-based; details: agar dilution
[13] = system: Streptococcus pneumoniae Park 1; assay type: cell-based; details: agar dilution
[14] = system: Staphylococcus aureus; details: Staphylococcus aureus infection in mice; two doses, administered subcutaneously
[15] = system: Staphylococcus aureus NRRL B313; details: agar dilution
[16] = system: Staphylococcus epidermidis 222; experiment: MIC, standard agar-dilution assay; assay type: cell-based
[17] = system: Escherichia coli EC14; experiment: MIC, standard agar-dilution assay; assay type: cell-based
[18] = system: Klebsiella pneumoniae X26; experiment: MIC, standard agar-dilution assay; assay type: cell-based
[19] = system: Staphylococcus aureus X400; experiment: MIC, standard agar-dilution assay; assay type: cell-based
[20] = system: Streptococcus pneumoniae; details: Streptococcus pneumoniae infection in mice; two doses, administered subcutaneously
[21] = system: Haemophilus influenzae C.L.; experiment: MIC, standard agar-dilution assay; assay type: cell-based

SMILES | MIC [1] [µg/mL] | MIC [2] [µg/mL] | MIC [3] [µg/mL] | MIC [4] [µg/mL] | MIC [5] [µg/mL] | MIC [6] [µg/mL] | MIC [7] [µg/mL] | ED50 [8] [mg/kg/2] | MIC [9] [µg/mL] | MIC [10] [µg/mL] | MIC [11] [µg/mL] | MIC [12] [µg/mL] | MIC [13] [µg/mL] | ED50 [14] [mg/kg/2] | MIC [15] [µg/mL] | MIC [16] [µg/mL] | MIC [17] [µg/mL] | MIC [18] [µg/mL] | MIC [19] [µg/mL] | ED50 [20] [mg/kg/2] | also measured
CCCCCCCCc1ccc(CNC2(C)CC(OC3C(Oc4c5cc6cc4Oc4ccc(cc4Cl)C(O)C4NC(=O)C(NC(=O)C6NC(=O)C(CC(N)=O)NC(=O)C(NC(=O)C(CC(C)C)NC)C(O)c6ccc(c(Cl)c6)O5)c5ccc(O)c(c5)-c5c(O)cc(O)cc5C(C(=O)O)NC4=O)OC(CO)C(O)C3O)OC(C)C2O)cc1 (stereo not drawn) [Example 93, N^van --( -p-octylbenzyl)vancomycin] | 0.25 (≈ 0.151 µM) | 0.5 (≈ 0.303 µM) | > 128 | 0.5 (≈ 0.303 µM) | > 128 | 0.25 (≈ 0.151 µM) | > 128 | 0.62 | 1 (≈ 0.605 µM) | > 128 | > 128 | 2 (≈ 1.21 µM) | 0.25 (≈ 0.151 µM) | 0.19 | 0.5 (≈ 0.303 µM) | 1 (≈ 0.605 µM) | > 128 | > 128 | 1 (≈ 0.605 µM) | 0.23 | MIC [21]: > 128 µg/mL
CCCCCCCCOc1ccc(CNC2(C)CC(OC3C(Oc4c5cc6cc4Oc4ccc(cc4Cl)C(O)C4NC(=O)C(NC(=O)C6NC(=O)C(CC(N)=O)NC(=O)C(NC(=O)C(CC(C)C)NC)C(O)c6ccc(c(Cl)c6)O5)c5ccc(O)c(c5)-c5c(O)cc(O)cc5C(C(=O)O)NC4=O)OC(CO)C(O)C3O)OC(C)C2O)cc1 (stereo not drawn) [Example 94, N^van --( -p-octyloxybenzyl)vancomycin] | 0.25 (≈ 0.15 µM) | 0.5 (≈ 0.3 µM) | > 128 | 0.25 (≈ 0.15 µM) | > 128 | 0.25 (≈ 0.15 µM) | > 128 | 0.66 | 0.5 (≈ 0.3 µM) | > 128 | > 128 | 1 (≈ 0.6 µM) | 0.25 (≈ 0.15 µM) | > 0.12 | 0.25 (≈ 0.15 µM) | 0.5 (≈ 0.3 µM) | > 128 | > 128 | 0.5 (≈ 0.3 µM) | 0.2 | MIC [21]: > 128 µg/mL
CNC(CC(C)C)C(=O)NC1C(=O)NC(CC(N)=O)C(=O)NC2C(=O)NC3C(=O)NC(C(=O)NC(C(=O)O)c4cc(O)cc(O)c4-c4cc3ccc4O)C(O)c3ccc(c(Cl)c3)Oc3cc2cc(c3OC2OC(CO)C(O)C(O)C2OC2CC(C)(NCc3ccc(O)cc3)C(O)C(C)O2)Oc2ccc(cc2Cl)C1O (stereo not drawn) [Example 105, N^van --( -p-hydroxybenzyl)vancomycin] | 0.5 (≈ 0.321 µM) | 0.5 (≈ 0.321 µM) | > 128 | 2 (≈ 1.29 µM) | > 128 | 0.5 (≈ 0.321 µM) | 64 (≈ 41.1 µM) | 1.18 | 0.5 (≈ 0.321 µM) | > 128 | > 128 | 1 (≈ 0.643 µM) | 0.06 (≈ 0.0386 µM) | 0.98 | 0.5 (≈ 0.321 µM) | 0.5 (≈ 0.321 µM) | > 128 | > 128 | 0.5 (≈ 0.321 µM) | 1.25 | MIC [21]: 64 µg/mL (≈ 41.1 µM)
